These results are taken from paper PMC3276251 (Chemical Research in Toxicology, 2011).

Entries after “also recorded” stand apart in the source; their conditions may differ. Like-named read-outs stand apart in the source and are kept apart here.

The format of data set [1] is in vivo, male Wistar rats. The settings on record: 2 mg AA-I subcutaneously; for Presence in collected rat urine: 24 hr urine; for Amount in the 24 hr urine sample: Wistar rats; for Average concentration in 24-hour collected urine: five rats, standard deviation in parentheses.
The next data set has as its target albumin in perfusate (Bos taurus, UniProt P02769). Put plainly: Perfusate binding by ultrafiltration. The format is in vitro ADME.
A short description of data set [2]: Isolated perfused rat kidney. The data set is classed as in vitro ADME, Sprague-Dawley rats. The settings on record: for Average amount in perfusate per 10-min period / Average amount in urine per 10-min period: 40–50, 50–60, 60–70 and 70–80 min periods, S.D. in parenthesis; for Concentration in perfusate / Concentration in urine: 70–80 min period, perfused with 50 µM AA-I; for Average excretion ratio (XR): mean (S.D.) of 7 collection periods 10–80 min, XR = Cl/(fu × GFR), Cl = Cu × UFR/Cp; for Concentration in the urines: 30–80 min; for Concentration in the urines / Concentration of AA-I in the urines: more or less constant; for XR (excretion ratio = CLR/CLFILT) / CLFILT (filtration clearance) / Cumulative excretion (urinary) / Kidney accumulation / CL renal at 50 µM: 50 µM dose; for XR (excretion ratio = CLR/CLFILT): AUC method; for CLFILT (filtration clearance): GFR × fu; for Cumulative excretion (urinary) / Kidney accumulation: at 80 min post-dose; for Cumulative AA-I excretion in the urine (Xu): eight periods (0–80 min); for Concentration of AA-I in the urines: last periods; for CL renal at 50 µM: male, Sprague-Dawley, rat, CLR (renal clearance), cumulative urinary excretion / AUC 0–80 min post-dose.

albumin in perfusate, sequence (P02769 25-607): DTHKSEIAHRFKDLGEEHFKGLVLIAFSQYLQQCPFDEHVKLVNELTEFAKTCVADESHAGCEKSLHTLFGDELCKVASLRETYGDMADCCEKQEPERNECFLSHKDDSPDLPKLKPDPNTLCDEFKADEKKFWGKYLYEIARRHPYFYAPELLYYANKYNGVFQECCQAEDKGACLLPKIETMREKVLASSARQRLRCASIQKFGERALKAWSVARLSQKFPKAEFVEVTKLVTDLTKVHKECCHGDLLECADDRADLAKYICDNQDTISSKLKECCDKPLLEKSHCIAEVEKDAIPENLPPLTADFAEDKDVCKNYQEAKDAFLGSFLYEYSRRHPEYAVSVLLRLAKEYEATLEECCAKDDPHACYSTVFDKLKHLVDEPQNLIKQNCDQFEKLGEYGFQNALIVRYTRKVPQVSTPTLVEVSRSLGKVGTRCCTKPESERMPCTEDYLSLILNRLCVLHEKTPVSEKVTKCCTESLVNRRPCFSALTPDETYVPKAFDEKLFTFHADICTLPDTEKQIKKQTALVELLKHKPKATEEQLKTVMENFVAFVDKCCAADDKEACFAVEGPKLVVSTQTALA

In the case of `O=C(O)c1cc2c(c3c1ccc1c(O)cccc13)OCO2` [compound 9, 3,4-methylenedioxy-8-hydroxy-1-phenanthrene-1-carboxylic acid], the “Presence in collected rat urine” value in data set [1] is “could only occasionally be observed by UV detection”.
In the case of `O=C(O)c1cc2c(c3c1c([N+](=O)[O-])cc1c(O)cccc13)OCO2` [AA-Ia, aristolochic acid Ia], the “fu (fraction unbound to albumin in perfusate)” value on albumin in perfusate (ultrafiltration, perfusate) stood at 0.0220. In data set [1], the “Amount in the 24 hr urine sample” value is given as 14.3 % of the dose and the “Average concentration in 24-hour collected urine” value (from here on “Average concentration”) is on record as 7900 (1300) µg/Lt. In addition, in data set [2] (Kidney A), the “Average amount in perfusate per 10-min period” value is 71.6 (31.0) nanomoles, the “Average amount in urine per 10-min period” value is 0.72 (0.11) nanomoles, the Concentration in perfusate worked out at 1240 nM and the Concentration in urine was found to be 680 nM. Besides, in data set [2] (Kidney A), the “Average excretion ratio (XR)” value is 12 (10). In addition, in data set [2] (Kidney B), the “Average amount in perfusate per 10-min period” value is 38 (10) nanomoles, the “Average amount in urine per 10-min period” value is on record as 6.7 (2.6) nanomoles, the Concentration in perfusate was found to be 420 nM and the Concentration in urine is 4380 nM. Moreover, in data set [2] (Kidney B), the “Average excretion ratio (XR)” value is 130 (77). The “Concentration in the urines” value in data set [2] (rat A) is “ca. 1 µM”. In addition, in data set [2] (rat B), the “Concentration in the urines” value was roughly 7000 nM.
Take `O=C(O)c1cc2c(c3c1c([N+](=O)[O-])cc1c(OS(=O)(=O)O)cccc13)OCO2` [AA-Ia-O-S, 8-hydroxy-3,4-methylenedioxy-10-nitro-1-phenanthrenecarboxylic acid O-sulfate]: the “Presence in collected rat urine” value in data set [1] (listed as AA-Ia-O-S (5)) is on record as “could only occasionally be observed by UV detection; also recorded: trace amounts”. Further, in data set [2] (IPK), the “Identification in the perfusate” value is given as “could not be identified”. Besides, the “Average amount in urine per 10-min period” value in data set [2] (Kidney A) is 0.36 (0.05) nanomoles; in data set [2] (Kidney B), 0.96 (0.28) nanomoles. Also, the values for the Concentration in urine in data set [2] (Kidney A) and in data set [2] (Kidney B) were 360 nM and 740 nM, respectively.
By fraction unbound is commonly meant the share of the substance not bound to proteins or other matrix. Lower therefore signals extensive binding. On albumin in perfusate, `COc1cccc2c1cc([N+](=O)[O-])c1c(C(=O)O)cc3c(c12)OCO3` [AA-I, 8-methoxy-6-nitro-phenanthro[3,4-d]-1,3-dioxole-5-carboxylic acid] displayed a free fraction (fraction unbound) of 0.0225. The “Average concentration” value in data set [1] was 68 (17) µg/Lt. For the same compound, in data set [2] (Kidney A), the “XR (excretion ratio = CLR/CLFILT)” value was found to be 0.10, the “CLFILT (filtration clearance)” value is recorded as 0.0146 mL/min, the “Cumulative excretion (urinary)” value worked out at 0.063 % dose and the Kidney accumulation is reported as 68 % dose. Moreover, in data set [2] (Kidney A), the “Average amount in perfusate per 10-min period” value is 1441 (139) nanomoles, the “Average amount in urine per 10-min period” value is given as 0.36 (0.05) nanomoles, the Concentration in perfusate is 16070 nM and the Concentration in urine amounted to 480 nM. In data set [2] (Kidney A), the “Cumulative AA-I excretion in the urine (Xu)” value came out at 2.5 µmol, the “Average excretion ratio (XR)” value is 0.14 (0.05) and the CL renal at 50 µM worked out at 0.0014 mL/min. Further, in data set [2] (Kidney B), the “XR (excretion ratio = CLR/CLFILT)” value came out at 0.26, the “CLFILT (filtration clearance)” value was 0.0138 mL/min, the “Cumulative excretion (urinary)” value came out at 0.162 % dose and the Kidney accumulation worked out at 53 % dose. Besides, in data set [2] (Kidney B), the “Average amount in perfusate per 10-min period” value is reported as 2447 (298) nanomoles, the “Average amount in urine per 10-min period” value was 1.24 (0.32) nanomoles, the Concentration in perfusate was determined as 23800 nM and the Concentration in urine was 940 nM. Also, in data set [2] (Kidney B), the “Cumulative AA-I excretion in the urine (Xu)” value is 6.5 µmol, the “Average excretion ratio (XR)” value is listed as 0.24 (0.05) and the CL renal at 50 µM was 0.003 mL/min. Besides, in data set [2] (Rat A, at 75 min), the “Perfusate concentration of AA-I” value is “ca. 16 µM”. In addition, the “Concentration of AA-I in the urines” value in data set [2] (Rat A) was roughly 500 nM. In addition, the “Perfusate concentration of AA-I” value in data set [2] (Rat B, at 75 min) is reported as roughly 23 µM. Also, the “Concentration of AA-I in the urines” value in data set [2] (Rat B) was roughly 1200 nM. In addition, the “Amounts of AA-I in perfusate and urines” value in data set [2] (end of the experiment (80 min)) was “less than 50 % of the dose”. Besides, the “Perfusate concentration of AA-I” value in data set [2] (sample taken at 15 min) is “ca. 28 µM”.
With `O=C1Nc2cc3c(OS(=O)(=O)O)cccc3c3c4c(cc1c23)OCO4` [L-Ia-O-S, 8-hydroxy-3,4-methylenedioxy-10-amino-1-phenanthrenecarboxylic acid lactam O-sulfate], in data set [1], the “Amount in the 24 hr urine sample” value is 0.09 % of the dose and the “Average concentration” value was 53 (24) µg/Lt.
Regarding aristolactam Ia [L-Ia], in data set [1], the “Amount in the 24 hr urine sample” value is on record as 3.4 % of the dose and the “Average concentration” value is 1600 (678) µg/Lt. Further, in data set [2] (Kidney A), the “Average amount in perfusate per 10-min period” value is 0.97 (0.52) nanomoles, the “Average amount in urine per 10-min period” value is 0.10 (0.03) nanomoles, the Concentration in perfusate was 10 nM and the Concentration in urine is 160 nM. In addition, the “Average excretion ratio (XR)” value in data set [2] (Kidney A) was 62 (50). Also, in data set [2] (Kidney B), the “Average amount in perfusate per 10-min period” value is 0.29 (0.09) nanomoles, the “Average amount in urine per 10-min period” value is 0.089 (0.071) nanomoles, the Concentration in perfusate is 24 nM and the “Average excretion ratio (XR)” value is given as 160 (131).
In the case of `COc1cccc2c1cc1c3c(cc4c(c32)OCO4)C(=O)N1` [L-I, aristolactam I], on albumin in perfusate, the fraction unbound amounted to 0.0235. Also, in data set [1], the “Amount in the 24 hr urine sample” value was 0.01 % of the dose and the “Average concentration” value is reported as 5.4 (3.8) µg/Lt. In data set [2] (Kidney A), the “Average amount in perfusate per 10-min period” value is reported as 0.086 (0.062) nanomoles, the “Average amount in urine per 10-min period” value is listed as 0.029 (0.013) nanomoles, the Concentration in perfusate worked out at 2 nM and the Concentration in urine was determined as 53 nM. Moreover, the “Average excretion ratio (XR)” value in data set [2] (Kidney A) is 130 (85). Also, in data set [2] (Kidney B), the “Average amount in perfusate per 10-min period” value is 0.35 (0.05) nanomoles, the “Average amount in urine per 10-min period” value is recorded as 0.034 (0.015) nanomoles, the Concentration in perfusate stood at 18 nM and the Concentration in urine stood at 55 nM. In data set [2] (Kidney B), the “Average excretion ratio (XR)” value is 33 (22).
For the compound `O=C1Nc2cc3c(OC4OC(C(=O)O)C(O)C(O)C4O)cccc3c3c4c(cc1c23)OCO4` [L-Ia-O-G, 8-hydroxy-3,4-methylenedioxy-10-amino-1-phenanthrene-carboxylic acid lactam O-glucuronide], in data set [1], the “Amount in the 24 hr urine sample” value was 0.09 % of the dose and the “Average concentration” value was 66 (54) µg/Lt. Also, in data set [2] (Kidney A), the “Average amount in urine per 10-min period” value is on record as 0.019 (0.007) nanomoles and the Concentration in urine came out at 31 nM. Further, in data set [2] (Kidney B), the “Average amount in urine per 10-min period” value was 0.012 (0.009) nanomoles, the Concentration in perfusate amounted to 14 nM and the Concentration in urine is 21 nM.
